Assay results as given in the supplement of paper PMC10933438, “Inhibition of urease-mediated ammonia production by 2-octynohydroxamic acid in hepatic encephalopathy” (Nature Communications, 2024).
± gives the standard deviation of the averaged measurements.

What was measured:
Test in all cases: revertant-positive wells per 48 wells (Ames fluctuation test); higher = more mutagenic; extreme values may be limits of the assay
Settings in all cases: exposure time: 90 min
[1] = tested on: Salmonella typhimurium TA1535
Description: (§1)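 Ames MPF Penta 1 microplate fluctuation assay (Xenometrix): bacteria exposed to compound (in DMSO) for 90 min at 37 °C with or without rat liver S9 fraction, then 2-day selection in histidine/tryptophan-free pH-indicator medium in 384-well plates; read-out is the number of revertant (yellow) wells out of 48, triplicate; compound considered mutagenic at >=2-fold over negative (DMSO) control baseline. Zero wells at high doses reflect cytotoxicity.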

[2] = tested on: Salmonella typhimurium TA1537
Description: as §1

[3] = tested on: Salmonella typhimurium TA100
Description: as §1

[4] = tested on: Salmonella typhimurium TA98
Description: as §1

[5] = 0.01 mM, S9 metabolic activation: with S9
[6] = 0.01 mM, S9 metabolic activation: without S9
[7] = 0.05 mM, S9 metabolic activation: with S9
[8] = 0.05 mM, S9 metabolic activation: without S9
[9] = 0.5 mM, S9 metabolic activation: with S9
[10] = 0.5 mM, S9 metabolic activation: without S9
[11] = 1 mM, S9 metabolic activation: with S9
[12] = 1 mM, S9 metabolic activation: without S9
[13] = 5 mM, S9 metabolic activation: with S9
[14] = 5 mM, S9 metabolic activation: without S9
[15] = 10 mM, S9 metabolic activation: with S9
[16] = 10 mM, S9 metabolic activation: without S9

Structure (SMILES): CCCCCC#CC(=O)NO [2-octynohydroxamic acid]
- revertant-positive wells per 48 wells [1, 5]: 0.333 ± 0.58
- revertant-positive wells per 48 wells [1, 6]: 1 ± 1
- revertant-positive wells per 48 wells [1, 7]: 2 ± 1.7
- revertant-positive wells per 48 wells [1, 8]: 1 ± 1
- revertant-positive wells per 48 wells [1, 9]: 0.667 ± 1.1
- revertant-positive wells per 48 wells [1, 10]: 1.67 ± 1.5
- revertant-positive wells per 48 wells [1, 11]: 1.33 ± 0.58
- revertant-positive wells per 48 wells [1, 12]: 0.667 ± 1.1
- revertant-positive wells per 48 wells [1, 13]: 0
- revertant-positive wells per 48 wells [1, 14]: 0
- revertant-positive wells per 48 wells [1, 15]: 0
- revertant-positive wells per 48 wells [1, 16]: 0
- revertant-positive wells per 48 wells [2, 5]: 0.333 ± 0.58
- revertant-positive wells per 48 wells [2, 6]: 1 ± 1
- revertant-positive wells per 48 wells [2, 7]: 1.33 ± 1.1
- revertant-positive wells per 48 wells [2, 8]: 0.333 ± 0.58
- revertant-positive wells per 48 wells [2, 9]: 0
- revertant-positive wells per 48 wells [2, 10]: 1.33 ± 1.5
- revertant-positive wells per 48 wells [2, 11]: 0
- revertant-positive wells per 48 wells [2, 12]: 3 ± 2.6
- revertant-positive wells per 48 wells [2, 13]: 0
- revertant-positive wells per 48 wells [2, 14]: 0
- revertant-positive wells per 48 wells [2, 15]: 0
- revertant-positive wells per 48 wells [2, 16]: 0
- revertant-positive wells per 48 wells [3, 5]: 9.33 ± 2.3
- revertant-positive wells per 48 wells [3, 6]: 3 ± 1.7
- revertant-positive wells per 48 wells [3, 7]: 6 ± 2
- revertant-positive wells per 48 wells [3, 8]: 3 ± 1
- revertant-positive wells per 48 wells [3, 9]: 0.333 ± 0.58
- revertant-positive wells per 48 wells [3, 10]: 1.33 ± 1.1
- revertant-positive wells per 48 wells [3, 11]: 0
- revertant-positive wells per 48 wells [3, 12]: 0
- revertant-positive wells per 48 wells [3, 13]: 0
- revertant-positive wells per 48 wells [3, 14]: 0
- revertant-positive wells per 48 wells [3, 15]: 0
- revertant-positive wells per 48 wells [3, 16]: 0
- revertant-positive wells per 48 wells [4, 5]: 0
- revertant-positive wells per 48 wells [4, 6]: 1.67 ± 1.5
- revertant-positive wells per 48 wells [4, 7]: 1 ± 1
- revertant-positive wells per 48 wells [4, 8]: 0.333 ± 0.58
- revertant-positive wells per 48 wells [4, 9]: 1 ± 1
- revertant-positive wells per 48 wells [4, 10]: 1.67 ± 1.5
- revertant-positive wells per 48 wells [4, 11]: 0.333 ± 0.58
- revertant-positive wells per 48 wells [4, 12]: 0
- revertant-positive wells per 48 wells [4, 13]: 0
- revertant-positive wells per 48 wells [4, 14]: 0
- revertant-positive wells per 48 wells [4, 15]: 0
- revertant-positive wells per 48 wells [4, 16]: 0

Structure (SMILES): CCCCCCCC(=O)NO [octanohydroxamic acid]
- revertant-positive wells per 48 wells [1, 6]: 1 ± 1
- revertant-positive wells per 48 wells [1, 7]: 2
- revertant-positive wells per 48 wells [1, 14]: 0
- revertant-positive wells per 48 wells [1, 15]: 0
- revertant-positive wells per 48 wells [1, 16]: 0
- revertant-positive wells per 48 wells [2, 7]: 1
- revertant-positive wells per 48 wells [2, 9]: 0
- revertant-positive wells per 48 wells [2, 11]: 0
- revertant-positive wells per 48 wells [2, 13]: 0
- revertant-positive wells per 48 wells [2, 14]: 0
- revertant-positive wells per 48 wells [2, 15]: 0
- revertant-positive wells per 48 wells [2, 16]: 0
- revertant-positive wells per 48 wells [3, 5]: 3.67 ± 1.5
- revertant-positive wells per 48 wells [3, 6]: 5 ± 3.6
- revertant-positive wells per 48 wells [3, 7]: 6.33 ± 1.5
- revertant-positive wells per 48 wells [3, 8]: 7.67 ± 1.5
- revertant-positive wells per 48 wells [3, 10]: 6 ± 2.6
- revertant-positive wells per 48 wells [3, 12]: 8.67 ± 0.58
- revertant-positive wells per 48 wells [3, 13]: 5 ± 1.7
- revertant-positive wells per 48 wells [3, 14]: 0
- revertant-positive wells per 48 wells [3, 15]: 0
- revertant-positive wells per 48 wells [3, 16]: 0

Structure (SMILES): CC(=O)NO [acetohydroxamic acid]
- revertant-positive wells per 48 wells [3, 6]: 3.67 ± 2.3
- revertant-positive wells per 48 wells [3, 7]: 7.33 ± 2.1
- revertant-positive wells per 48 wells [3, 8]: 4.33 ± 0.58
- revertant-positive wells per 48 wells [3, 9]: 7.33 ± 1.5
- revertant-positive wells per 48 wells [3, 11]: 10.3 ± 1.5
- revertant-positive wells per 48 wells [3, 12]: 5.67 ± 0.58
- revertant-positive wells per 48 wells [3, 13]: 15 ± 2
- revertant-positive wells per 48 wells [3, 14]: 13.3 ± 4.7
- revertant-positive wells per 48 wells [3, 15]: 18.7 ± 2.5
- revertant-positive wells per 48 wells [3, 16]: 17.3 ± 4
